Reference: patent publication US20190010139A1 (priority 2015, published 2019)
Like-named read-outs stand apart in the source and are kept apart here.

Tested on: NL-RLuc virus
Assay: Inhibition of HIV replication (NL-RLuc luciferase reporter virus in MT-2 cells)
Format: cell-based
Conditions: Human immunodeficiency virus 1, MT2, 120 h
Description: Inhibition of HIV Replication:
A recombinant NL-RLuc proviral clone was constructed in which a section of the nef gene from NL4-3 was replaced with the Renilla Luciferase gene. This virus is fully infectious and can undergo multiple cycles of replication in cell culture. In addition, the luciferous reporter provides a simple and easy method for quantitating the extent of virus growth and consequently, the antiviral activity of test compounds. The plasmid pNLRLuc contains the proviral NL-Rluc DNA cloned into pUC 18 at the PvuII site. The NL-RLuc virus was prepared by transfection of 293T cells with the plasmid pNLRLuc. Transfections were performed using the LipofectAMINE PLUS kit from Invitrogen (Carlsbad, Calif.) according to the manufacturer and the virus generated was titered in MT-2 cells. For susceptibility analyses, the titrated virus was used to infect MT-2 cells in the presence of compound, and after 5 days of incubation, cells were processed and quantitated for virus growth by the amount of expressed luciferase. Assay media was RPMI 1640 supplemented with 10% heat inactivated fetal bovine serum (FBS), 100 units/ml penicillin G/100 units/ml streptomycin, 10 mM HEPES buffer pH 7.55 and 2 mM L-glutamine. The results from at least 2 experiments were used to calculate the EC50 values. Luciferase was quantitated using the Dual Luciferase kit from Promega (Madison, Wis.). Susceptibility of viruses to compounds was determined by incubation in the presence of serial dilutions of the compound. The 50% effective concentration (EC50) was calculated by using the exponential form of the median effect equation where (Fa)=1/[1+(ED50/drug conc.)^m](Johnson V A, Byington R T. Infectivity Assay. In Techniques in HIV Research. ed. Aldovini A, Walker B D. 71-76. New York: Stockton Press.1990). Activity equal to A refers to a compound having an EC50≤100 nM, while B and C denote compounds having an EC50 between 100 nM and 1 uM (B) or >1 uM (C).

SMILES | EC50 (read-out: Activity) | EC50 (read-out: EC50 μM)
Cc1nc(CNCC2CCOCC2)c(-c2ccc(OCCc3ccc(F)cc3)cc2)c(N2CCC3(CCC3)CC2)c1[C@H](OC(C)(C)C)C(=O)O [Example 45, (S)-2-(tert-Butoxy)-2-(5-(4-(4-fluorophenethoxy)phenyl)-2-methyl-4-(7-azaspiro[3.5]nonan-7-yl)-6-((((tetrahydro-2H-pyran-4-yl)methyl)amino)methyl)pyridin-3-yl)acetic acid] | < 0.1 µM | 
Cc1nc(C)c([C@H](OC(C)(C)C)C(=O)O)c(N2CC[C@H]3CCCC[C@H]3C2)c1-c1ccc(C(=O)NCc2ccccc2)cc1 [Example 11, (S)-2-(5-(4-(Benzylcarbamoyl)phenyl)-2,6-dimethyl-4-((4aR,8aR)-octahydroisoquinolin-2(1H)-yl)pyridin-3-yl)-2-(tert-butoxy)acetic acid] | < 0.1 µM | 
Cc1nc(C)c([C@H](OC(C)(C)C)C(=O)O)c(N2CCC3(CCCCC3)CC2)c1-c1ccc(C(=O)NCc2ccccc2)cc1 [Example 61, (S)-2-(5-(4-(Benzylcarbamoyl)phenyl)-2,6-dimethyl-4-(3-azaspiro[5.5]undecan-3-yl)pyridin-3-yl)-2-(tert-butoxy)acetic acid] | < 0.1 µM | 
Cc1nc(C)c([C@H](OC(C)(C)C)C(=O)O)c(N2CCc3ccccc3C2)c1-c1ccc(OCCc2ccc(F)cc2)cc1 [Example 10, (S)-2-(tert-Butoxy)-2-(4-(3,4-dihydroisoquinolin-2(1H)-yl)-5-(4-(4-fluorophenethoxy)phenyl)-2,6-dimethylpyridin-3-yl)acetic acid] | < 0.1 µM | 
Cc1nc(C)c([C@H](OC(C)(C)C)C(=O)O)c(N2CC3CCCC3C2)c1-c1ccc(C(=O)NCc2ccccc2)cc1 (stereo partly drawn) [Example 4, (2S)-2-(5-(4-(Benzylcarbamoyl)phenyl)-4-(hexahydrocyclopenta[c]pyrrol-2(1H)-yl)-2,6-dimethylpyridin-3-yl)-2-(tert-butoxy)acetic acid] | < 0.1 µM | 
Cc1nc(CO)c(-c2ccc(OCCc3ccc(F)cc3)cc2)c(N2CCC3(CCC3)CC2)c1[C@H](OC(C)(C)C)C(=O)O [Example 38, (S)-2-(tert-Butoxy)-2-(5-(4-(4-fluorophenethoxy)phenyl)-6-(hydroxymethyl)-2-methyl-4-(7-azaspiro[3.5]nonan-7-yl)pyridin-3-yl)acetic acid] | < 0.1 µM | 
Cc1nc(C)c([C@H](OC(C)(C)C)C(=O)O)c(N2CC[C@H]3CCCC[C@@H]3C2)c1-c1ccc(C(=O)NCc2ccccc2)cc1 [Example 13, (S)-2-(5-(4-(Benzylcarbamoyl)phenyl)-2,6-dimethyl-4-((4aR,8aS)-octahydroisoquinolin-2(1H)-yl)pyridin-3-yl)-2-(tert-butoxy)acetic acid] | < 0.1 µM | 
CCOCCOCc1nc(C)c([C@H](OC(C)(C)C)C(=O)O)c(N2CCC3(CCC3)CC2)c1-c1ccc(OCCc2ccc(F)cc2)cc1 [Example 49, (S)-2-(tert-Butoxy)-2-(6-((2-ethoxyethoxy)methyl)-5-(4-(4-fluoro-phenethoxy)phenyl)-2-methyl-4-(7-azaspiro[3.5]nonan-7-yl)pyridin-3-yl)acetic acid] | < 0.1 µM | 0.006 µM
Cc1nc(C)c([C@H](OC(C)(C)C)C(=O)O)c(N2CCC3(CCC3)CC2)c1-c1ccc2c(c1)CCN(Cc1ccccc1F)C2 [Example 33, (S)-2-(tert-Butoxy)-2-(5-(2-(2-fluorobenzyl)-1,2,3,4-tetrahydroisoquinolin-6-yl)-2,6-dimethyl-4-(7-azaspiro[3.5]nonan-7-yl)pyridin-3-yl)acetic acid] | < 0.1 µM | 
Cc1nc(C)c([C@H](OC(C)(C)C)C(=O)O)c(N2CC3CC3C2)c1-c1ccc(OCCc2ccc(F)cc2)cc1 (stereo partly drawn) [Example 6, (2S)-2-(4-(3-Azabicyclo[3.1.0]hexan-3-yl)-5-(4-(4-fluorophenethoxy)phenyl)-2,6-dimethylpyridin-3-yl)-2-(tert-butoxy)acetic acid] | 0.1 to 1 µM | 
COCCNCc1nc(C)c([C@H](OC(C)(C)C)C(=O)O)c(N2CCC3(CCC3)CC2)c1-c1ccc(OCCc2ccc(F)cc2)cc1 [Example 42, (S)-2-(tert-Butoxy)-2-(5-(4-(4-fluorophenethoxy)phenyl)-6-(((2-methoxyethyl)amino)methyl)-2-methyl-4-(7-azaspiro[3.5]nonan-7-yl)pyridin-3-yl)acetic acid] | < 0.1 µM | 0.002 µM
Cc1nc(COCC2COC2)c(-c2ccc(OCCc3ccc(F)cc3)cc2)c(N2CCC3(CCC3)CC2)c1[C@H](OC(C)(C)C)C(=O)O [Example 48, (S)-2-(tert-Butoxy)-2-(5-(4-(4-fluorophenethoxy)phenyl)-2-methyl-6-((oxetan-3-ylmethoxy)methyl)-4-(7-azaspiro[3.5]nonan-7-yl)pyridin-3-yl)acetic acid] | < 0.1 µM | 
Cc1nc(C)c([C@H](OC(C)(C)C)C(=O)O)c(N2CCC3(CCNC3)CC2)c1-c1ccc(C(=O)NCc2ccccc2)cc1 [Example 69, (S)-2-(5-(4-(Benzylcarbamoyl)phenyl)-2,6-dimethyl-4-(2,8-diazaspiro[4.5]decan-8-yl)pyridin-3-yl)-2-(tert-butoxy)acetic acid] | > 1 µM | 9.66 µM
Cc1nc(CN2CCCC2)c(-c2ccc(OCCc3ccc(F)cc3)cc2)c(N2CCC3(CCC3)CC2)c1[C@H](OC(C)(C)C)C(=O)O [Example 44, (S)-2-(tert-Butoxy)-2-(5-(4-(4-fluorophenethoxy)phenyl)-2-methyl-6-(pyrrolidin-1-ylmethyl)-4-(7-azaspiro[3.5]nonan-7-yl)pyridin-3-yl)acetic acid] | < 0.1 µM | 
Cc1nc(C)c([C@H](OC(C)(C)C)C(=O)O)c(N2CCC3(CC2)CC3)c1-c1ccc(OCCc2ccc(F)cc2)cc1 [Example 16, (S)-2-(tert-Butoxy)-2-(5-(4-(4-fluorophenethoxy)phenyl)-2,6-dimethyl-4-(6-azaspiro[2.5]octan-6-yl)pyridin-3-yl)acetic acid] | < 0.1 µM | 0.003 µM
Cc1nc(C)c([C@H](OC(C)(C)C)C(=O)O)c(N2CCC3(CCC3)CC2)c1-c1ccc(OCCc2ccc(F)cc2)cc1 [Example 27, (S)-2-(tert-Butoxy)-2-(5-(4-(4-fluorophenethoxy)phenyl)-2,6-dimethyl-4-(7-azaspiro[3.5]nonan-7-yl)pyridin-3-yl)acetic acid] | < 0.1 µM | 
Cc1nc(C)c([C@H](OC(C)(C)C)C(=O)O)c(N2CC3CC3C2)c1-c1ccc(C(=O)NCc2ccccc2)cc1 (stereo partly drawn) [Example 7, (2S)-2-(5-(4-(Benzylcarbamoyl)phenyl)-4-(3-azabicyclo[3.1.0]hexan-3-yl)-2,6-dimethylpyridin-3-yl)-2-(tert-butoxy)acetic acid] | 0.1 to 1 µM | 0.651 µM
Cc1nc(C)c([C@H](OC(C)(C)C)C(=O)O)c(N2CC3CCC2C3)c1-c1ccc(C(=O)NCc2ccccc2)cc1 (stereo partly drawn) [Example 1, (S)-2-(5-(4-(Benzylcarbamoyl)phenyl)-4-(2-azabicyclo[2.2.1]heptan-2-yl)-2,6-dimethylpyridin-3-yl)-2-(tert-butoxy)acetic acid] | 0.1 to 1 µM | 0.446 µM
Cc1nc(COC2COC2)c(-c2ccc(OCCc3ccc(F)cc3)cc2)c(N2CCC3(CCC3)CC2)c1[C@H](OC(C)(C)C)C(=O)O [Example 58, (S)-2-(tert-Butoxy)-2-(5-(4-(4-fluorophenethoxy)phenyl)-2-methyl-6-((oxetan-3-yloxy)methyl)-4-(7-azaspiro[3.5]nonan-7-yl)pyridin-3-yl)acetic acid] | < 0.1 µM | 
Cc1nc(CN2CCC3(CCC3)CC2)c(-c2ccc(OCCc3ccc(F)cc3)cc2)c(N2CCC3(CCC3)CC2)c1[C@H](OC(C)(C)C)C(=O)O [Example 57, (S)-2-(6-(7-Azaspiro[3.5]nonan-7-ylmethyl)-5-(4-(4-fluorophenethoxy)phenyl)-2-methyl-4-(7-azaspiro[3.5]nonan-7-yl)pyridin-3-yl)-2-(tert-butoxy)acetic acid] | < 0.1 µM | 
COCCN(C)Cc1nc(C)c([C@H](OC(C)(C)C)C(=O)O)c(N2CCC3(CCC3)CC2)c1-c1ccc(OCCc2ccc(F)cc2)cc1 [Example 43, (S)-2-(tert-Butoxy)-2-(5-(4-(4-fluorophenethoxy)phenyl)-6-(((2-methoxyethyl)(methyl)amino)methyl)-2-methyl-4-(7-azaspiro[3.5]nonan-7-yl)pyridin-3-yl)acetic acid] | < 0.1 µM | 
Cc1nc(C)c([C@H](OC(C)(C)C)C(=O)O)c(N2CCC3(CCCC3)C2)c1-c1ccc(C(=O)NCc2ccccc2)cc1 [Example 15, (S)-2-(5-(4-(Benzylcarbamoyl)phenyl)-2,6-dimethyl-4-(2-azaspiro[4.4]nonan-2-yl)pyridin-3-yl)-2-(tert-butoxy)acetic acid] | < 0.1 µM | 
Cc1nc(C)c([C@H](OC(C)(C)C)C(=O)O)c(N2CCC3(CC2)CC3)c1-c1ccc(C(=O)NCc2ccccc2)cc1 [Example 17, (S)-2-(5-(4-(Benzylcarbamoyl)-phenyl)-2,6-dimethyl-4-(6-azaspiro[2.5]octan-6-yl)pyridin-3-yl)-2-(tert-butoxy)acetic acid] | < 0.1 µM | 
